Experimental data published in US20240252689A1, “POLY-ADP RIBOSE (PAR) TRACKER OPTIMIZED SPLIT-PROTEIN REASSEMBLY PAR DETECTION REAGENTS” (THE BOARD OF REGENTS OF THE UNIVERSITY OF TEXAS SYSTEM, priority 2021, published 2024).

Legend:
[1] = system: PARP-1 activation; test: Live-cell luminescence assay with PAR-T NanoLuc, UV-induced PARP-1 activation in MDA-MB-231-Luc cells; assay type: cell-based, human; conditions: for time-dependent, UV-mediated increase in PAR-T NanoLuc signal (PARP-1 activation): time course after UV radiation, 20 μM for 2 hr prior to UV
Experimental: Each point in the graph represents the mean±SEM of the relative levels of luminescence from PAR-T NanoLuc normalized to full Nano luciferase (n=3).
FIG. 11B provides quantitative analysis of Western blot analysis and bioluminescence imaging (shown in FIG. 4B) of 231-PAR-T NanoLuc cells treated with 20 μM Niraparib or 20 μM PARG inhibitor for 2 hr prior to UV radiation. Each bar in the graph represents the mean±SEM of the relative intensities (n=3, one-way ANOVA, *p<0.05, **p<0.001, and ***p<0.0001; ns=not significant).
(§1) Cells were treated with various inhibitors as described herein. For inhibition of nuclear PARPs, cells were treated with PJ-34 ([…]; Enzo, ALX-270) or Olaparib (20 µM; MedChem Express, HY-10162) for 2 hours. For inhibition of PARG, cells were treated with PDD 00017273 (20 µM; MedChem Express, HY-108360) for 2 hours. For UV-induced DNA damage, the cells were harvested 15 minutes after treatment with 50 mJ/cm2 UV irradiation.
DNA damaging agents such as UV irradiation and y irradiation activate PARP-1 and cause PARylation of itself and other DNA damage repair proteins that are recruited to the damage sites. […] MDA-MB-231-Luc cells were subjected to doxycycline-induced expression of PAR-T, and then treated UV radiation. […] In a similar manner, a time course of UV-mediated PARP-1 activation using live cell luminescence assay with the PAR-T NanoLuc sensor was performed. The MDA-MB-231 cells were subjected to Dox-induced expression of PAR-T NanoLuc or intact Nano luciferase and then exposed the cells to UV radiation.
Next, a set of assays was performed to compare the performance of the PAR-T sensors to conventional PAR detection reagents (WWE-Fc and PAR antibody) in a variety of assays. The following assays were compared (1) Western blotting with WWE-Fc versus fluorescence assay with PAR-T ddGFP, which were performed in conjunction with ARH3-mediated degradation of PAR in vitro (FIG. 11A); (2) Western blotting with WWE-Fc versus live-cell luciferase assay using PAR-T NanoLuc, which were performed in conjunction with UV-induced DNA damage in MDA-MB-231 cells (FIG. 11B); (3) enzyme-linked immunosorbent assay (ELISA) with PAR antibody versus fluorescence assay with PAR-T ddGFP, which were performed using immobilized PAR (FIG. 11C); and (4) immunofluorescence with WWE-Fc versus live-cell imaging using PAR-T ddGFP, which were performed using H2O2-mediated PARP-1 activation in 293T cells (FIG. 11D and FIG. 11E).

[2] = system: PARylation; test: Live cell imaging of 3D cancer spheroids of MCF7 cells expressing PAR-T ddGFP; assay type: cell-based; conditions: for distribution of PARylation (PAR) throughout the spheroid: MCF7 3D cancer spheroids
Experimental: FIGS. 8C and 8D provides representative images (8C) and quantification (8D) of Z-projections of cancer spheroids formed using MCF-7 cells subjected to Dox-induced expression of the PAR-T ddGFP. The spheroids were treated with 20 µM Niraparib and live-cell imaging was performed at the indicated times. (Left) The spheroids were divided into ‘outer’ and ‘core’ sections for quantification as indicated by the white circles. (Right) Enlargement of the indicated areas from the left panels (yellow, core; pink, outer) as indicated.
Cancers are heterogenous tissues with spatial variation in nutrient availability, and stress. Since PARylation is enhanced by stressors such as DNA damage, another experiment tested whether there was any spatial variation in PARylation levels. Live cell imaging was performed in 3D cancer spheroids using MCF7 cells expressing the WWE based PAR-T sensors. […] A time course of Niraparib treatment in 3D cancer spheroids was performed to visualize spatio-temporal changes in PAR levels over time.

[3] = system: PARylation; test: PAR-T luminescence in MDA-MB-231-luc xenograft tumors; assay type: in vivo; conditions: xenograft tumors in mice
Experimental: In the next experiment, the utility of luminescent PAR-T sensor to measure the levels of PARylation in vivo was tested. Xenograft tumors were established using the MDA-MB-231-luc cells the expression of PAR-T was induced by doxycycline (FIG. 5A). […] The luminescence from PAR-T was normalized to the firefly luminescence to confidently measure the differences in PARylation, while accounting for the variability in tumor sizes.

[4] = system: PARylation; test: Recombinant PAR-T sensors incubated with lysates from treated Hela cells; assay type: cell-based
Experimental: as §1
Cells were cultured and treated as described above before the preparation of cell extracts. […]
Dimerization-dependent GFP is a genetically encoded sensor that was initially developed to study protein interactions. In this system, a pair of a quenched GFP (ddGFPA) and a non-fluorogenic GFP (ddGFPB) form a heterodimer that can result in improved fluorescence. In this example, a ddGFP-based fluorescence sensor (fluorescent PAR-Trackers or PAR-T) was designed to allow for live cell imaging, with high signal-noise ratio. To achieve this, the various ADPR reader domains (ARBDs) were fused to ddGFP-A/B and purified as recombinant proteins (FIG. 1A, FIG. 1B, FIG. 6A). […] Similarly, degradation of PAR chains by ARH3 was detected in a time (FIG. 1F and FIG. 1G) and dose (FIG. 6H) dependent way. […]

[5] = system: PAR accumulation; test: Time course of PAR-T NanoLuc bioluminescence of breast cancer cells injected into mice; assay type: in vivo, C57/BL6 mice; conditions: 24-hr time course post injection
From the text: FIGS. 5D to 5E show analysis of a time course of bioluminescence imaging of 231-PAR-T NanoLuc cells transplanted into mice and treated with PARG inhibitor. Bioluminescence imaging (5D) with the region of interest expanded (5E). Each point in the graph in (5F) represents the mean±SEM of the relative levels of luminescence of NanoLuc of PAR-T NanoLuc (n=4).
PAR accumulation in breast cancer cells injected into C57/BL6 mice without establishing xenograft tumors over a 24-hr time course post injection, with or without PARG inhibitor treatment (FIG. 5D, FIG. 5E and FIG. 5F) was measured. PAR accumulation was readily detected in the breast cancer cells injected into the mice in the absence of treatment.

Compound	decrease in PAR-T NanoLuc signal ([1]; UV-treated cells pre-treated with compound, versus basal)	decrease in PAR-T NanoLuc signal ([1]; basal (-UV) conditions, 20 μM, 2 hr) [%]	time-dependent, UV-mediated increase in PAR-T NanoLuc signal (PARP-1 activation) [1]	distribution of PARylation (PAR) throughout the spheroid [2]	PAR levels in cells at the core versus outer layer of the spheroid ([2]; time course, 20 µM Niraparib)	distribution of PARylation (PAR) throughout the spheroid ([2]; WWE based PAR-T sensors, 20 uM Niraparib)	PARylation detected by PAR-T luminescence normalized to firefly luminescence [3]	PAR-T luminescence ([1]; UV radiation of treated cells)	fluorescence of recombinant PAR-T sensors with cell lysates ([4]; lysates from cells treated with both H2O2 and PARG inhibitor)	fluorescence of recombinant PAR-T sensors with cell lysates ([4]; lysates from treated Hela cells)	luminescence from PAR-T NanoLuc [5]
NC(=O)c1cccc2cn(-c3ccc([C@@H]4CCCNC4)cc3)nc12 [Niraparib]	greater	50	but not in Niraparib-treated cells	inhibited	relatively resistant	–	–	–	–	–	–
O=C(c1cc(Cc2n[nH]c(=O)c3ccccc23)ccc1F)N1CCN(C(=O)C2CC2)CC1 [olaparib, Olaparib]	–	–	–	–	–	inhibited	–	–	–	–	–
PDD 00017273 [PARG inhibitor]	–	–	more spontaneous	–	–	–	increase in PARylation	enhanced PAR-T luminescence	pronounced increase in fluorescence	increase in fluorescence	increased significantly by 6 hr and then diminished by 24 hr
